Holding throughout (type): in vivo, rat
Experiment [1] relates to STZ-induced mechanical allodynia. The experiment can be described thus: Example 7: mechanical allodynia (von Frey PWT) in streptozotocin diabetes-induced peripheral neuropathy model. As to conditions: Pregabalin 30 mg/kg p.o. 2 hr prior to each Von Frey test. The method, then:
The aim of the study is to investigate the effect of a single intraplantar treatment with Nanoparticles from Example 3 at the doses of 117 g/L in 20 μL of injection volume, 58 g/L in 20 μL of injection volume, and 18 g/L in 10 μL of injection volume on the mechanical allodynia (as assessed using von Frey) that occurs following systemic administration of Streptozocin in the rat.
Experimental subjects: Sixty-six (66) adult male Sprague-Dawley rats (180-210 g) were used for this study. […]
Confirmation of hyperglycaemia: On Day 7 (D7) one drop of tail vein blood was obtained by a needle prick on the conscious rats. The blood glucose levels were measured in one drop of blood using an Exactive Vital (MictoTech Medical) blood glucose monitor. […]
Static mechanical (tactile) allodynia: Measurement of withdrawal threshold was achieved using calibrated (force; g) von-Frey monofilaments (Touch-Test Sensory Evaluator; Scientific Marketing Associates) applied to the plantar surface of the hind paw. Withdrawal threshold was determined by increasing and decreasing stimulus intensity and estimated using Dixon's up-down method (Dixon, 1980; Chaplan et al., 1994). […]
Von Frey readings are taken at baseline (pre-STZ), at D9 and at D11 post-STZ (neuropathic/allodynia baseline) and 2 hours post dose on D14. Von-Frey readings are repeated twice per week up to 3 weeks post-STZ (1 week post nanoparticles dosing). […]

Experiment [2] has as its system oxaliplatin-induced mechanical allodynia. In words: Example 6: mechanical allodynia (von Frey PWT) in oxaliplatin CIPN model, dose effect, left (treated) vs right (vehicle) paw. As to conditions: Pregabalin 30 mg/kg p.o. each test day; both left and right paws. The text has this: Animals were allowed to recover from transportation for at least one week before commencing experiments.
Data is presented as mean±SEM.

The test system is the same in experiment [3]. In words: Example 5: mechanical allodynia (von Frey PWT) in oxaliplatin chemotherapy-induced peripheral neuropathy model. The note with it: Pregabalin 30 mg/kg p.o. each test day, tested 2 hr post dose. How it is done:
The aim of this study was to investigate the effect of a single intraplantar treatment with Nanoparticles from Example 1 (NP1B) at the dose of 11 g/L, Nanoparticles from Example 2 (NP2B) at 53 g/L, Nanoparticles from Example 3 (NP20B) at 57 g/L, and Nanoparticles from Example 4 (NP20A) at 59 g/L, each in 20 μL of injection volume, on the mechanical allodynia (as assessed using von Frey) that occurs following systemic administration of oxaliplatin in the rat.
Experimental subjects: Seventy-two (72) adult male Sprague-Dawley rats were used for this study. […]
Static mechanical (tactile) allodynia evaluation: Measurement of paw withdrawal threshold (PWT) was achieved using calibrated (force; g) von-Frey monofilaments (Touch-Test Sensory Evaluator; Scientific Marketing Associates) applied to the plantar surface of the hind paw. Withdrawal threshold was determined by increasing and decreasing stimulus intensity and estimated using Dixon's up-down method. […]
Baseline readings for latency to withdrawal (sec) were assessed on three consecutive days (Day −3, Day −2 and Day −1). […]
Mechanical allodynia was subsequently re-assessed 2-3 times per week following injection, out to D26 post-oxaliplatin. […]

In the case of `CC(C)C[C@H](CN)CC(=O)O` [Pregabalin], in experiment [1], the “PWT levels compared to “STZ/Vehicle” group” value is listed as “significantly different from the “STZ/Vehicle” group on all days tested”. In addition, the “PWT levels compared to ‘Vehicle/Vehicle’ group (not neuropathic)” value in experiment [2] is listed as “not significantly different from the ‘Vehicle/Vehicle’ group (not neuropathic) on any of the test days”. Besides, the “PWT, allodynic response (positive control)” value in experiment [3] was “rescued the allodynic response and recovered the PWT to the healthy baseline levels”.
